In PubChem BioAssay (NCI):
Where “and” joins values, the source holds several entries; their conditions need not be identical. Identical values can stand only once.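 Protocol summary: plate cells (96-well), add compound at 5 concentrations, incubate 48 h, interpolate endpoints linearly. Here, GI50 denotes the concentration required for 50% inhibition of growth. TGI is the concentration that stops growth completely.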

Legend:
Assay in all cases: inhibition of tumour cell growth, NCI panel, 48 h
U251 CNS = test system: U251 CNS
MALME-3M melanoma = test system: MALME-3M melanoma
SW-620 colon = test system: SW-620 colon
HOP-92 NSCLC = test system: HOP-92 NSCLC
HS 578T breast = test system: HS 578T breast
HL-60(TB) leukemia = test system: HL-60(TB) leukemia
LOX IMVI melanoma = test system: LOX IMVI melanoma
NCI-H226 lung = test system: NCI-H226 lung
HOP-62 NSCLC = test system: HOP-62 NSCLC
K-562 leukemia = test system: K-562 leukemia

Row | Compound | TGI (U251 CNS) | TGI (MALME-3M melanoma) [µM] | TGI (SW-620 colon) | TGI (HOP-92 NSCLC) | TGI (HS 578T breast) [µM] | TGI (HL-60(TB) leukemia) | TGI (LOX IMVI melanoma) | TGI (NCI-H226 lung) | TGI (HOP-62 NSCLC) | TGI (K-562 leukemia) | GI50 (U251 CNS) [µM] | GI50 (MALME-3M melanoma) [µM] | GI50 (SW-620 colon) [µM] | GI50 (HOP-92 NSCLC) [µM] | GI50 (HL-60(TB) leukemia) | GI50 (LOX IMVI melanoma) [µM] | GI50 (NCI-H226 lung) [µM] | GI50 (HOP-62 NSCLC)
1 | COC(=O)C1=NN2c3ccccc3CN([C@@H](C)c3ccccc3)C(=O)[C@H]2[C@@H]1C | > 100 µM | > 100 | > 100 µM | > 100 µM | > 100 | > 100 µM | > 100 µM | > 100 µM | > 100 µM | > 100 µM | – | – | – | – | – | – | – | –
2 | O=c1c(Sc2ncccn2)c(Sc2ncccn2)cnn1CCl | 19.7 µM | 4.25 | 17.9 µM | 7.38 µM | 37 | 5 µM | 5.28 µM | > 76.8 µM | 8.05 µM | 20.5 µM | – | – | – | – | – | – | – | –
3 | COc1ccc(N2C(=O)C3c4[nH]c5ccc(OCc6ccccc6)cc5c4C4CCC(C(C)C)CC4C3C2=O)cc1 (configuration not stated) | > 73.1 µM | > 100 | > 100 µM | 93.2 µM | > 49.8 | 23.9 µM | > 100 µM | 42.9 µM | 36.4 µM | > 68.3 µM | – | – | – | – | – | – | – | –
4 | CN1CCCC(C(=O)OCC(=O)C2(O)CCC3C4CCC5=CC(=O)CCC5(C)C4C(O)CC32C)C1 (configuration not stated) | 16 µM | 33.2 | > 79.2 µM | > 100 µM | > 82.9 | 11 µM | 30.6 µM | 33.9 µM | 31 µM | 28.7 µM | – | – | – | – | – | – | – | –
5 | CCN(CC)CCC(=O)O[C@H]1CC[C@H](CC(C)[C@H]2CC(=O)C(C)C=C(C)[C@H](OC(=O)CCN(CC)CC)C(OC)C(=O)[C@@H](C)CC(C)/C=C/C=C/C=C(C)C(OC)CC3CC[C@H](C)[C@](O)(O3)C(=O)C(=O)N3CCCCC3C(=O)O2)CC1OC (some centres not stated) | 2.34 µM and 1.9 µM | – | 3.66 µM and 2 µM | 4.31 µM and 1.62 µM | 2.28 | 4.48 µM and 1.16 µM | 1.94 µM and 1.65 µM | 3.68 µM and 3.34 µM | 1.73 µM and 2.75 µM | 5.2 µM and 3.65 µM | 1.13 | 0.0579 | 1.37 | 0.025 | 1.83 µM and 0.345 µM | 0.00795 | 1.21 | 0.00257 µM and 0.00547 µM
6 | CC(=O)NC1C(OCc2ccccc2)OC(CO)C(O)C1OCC(=O)N1CCCC1C(=O)NC(CCC(=O)NCCCCCNc1c2ccccc2nc2cccc([N+](=O)[O-])c12)C(N)=O (configuration not stated) | 0.206 µM | 0.0425 | 0.0424 µM | 0.101 µM | 0.19 | 3.98 µM | 0.733 µM | 0.514 µM | 0.125 µM | 0.0475 µM | – | – | – | – | – | – | – | –
7 | Oc1ccccc1-n1nc2ccc3nonc3c2n1 | > 100 µM | > 100 | > 100 µM | > 100 µM | > 100 | > 100 µM | > 100 µM | > 100 µM | > 100 µM | > 100 µM | – | – | – | – | – | – | – | –
